Source: US8461107B2 (Merck Sharp & Dohme Corp., priority 2008, dated 2013)

Biological target: T1, HCV genotype 1b (BK) NS3 modified with a R155K mutation (Hepatitis C virus genotype 1b, UniProt P26663, R1181K)
T1 construct: HCV genotype 1b (BK) NS3 modified with a R155K mutation
Assay: HCV NS3 protease time-resolved fluorescence (TRF) assay, NS3 protease 1b R155K Ki activity
Type: biochemical
Conditions: HCV genotype 1b (BK) NS3 with R155K mutation; TRF peptide substrate 100 nM; Ki derived from IC50
In short: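 Pre-incubation of NS3/NS4A protease (genotype 1b BK, R155K) with inhibitor for 30 min, then 1 h at room temperature with 100 nM TRF peptide substrate in pH 7.5 HEPES buffer with 10 mM DTT. Reaction quenched with pH 5.5 MES; time-resolved fluorescence read (ex 340/em 615 nm). Ki derived from four-parameter IC50 fit via IC50=Ki(1+[S]/KM).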

SMILES	Ki [nM]
C=C[C@@H]1C[C@]1(NC(=O)[C@@H]1C[C@@H]2CN1C(=O)[C@H](C1CCCC1)NC(=O)O[C@@H]1CCC[C@H]1C/C=C/CCn1c(cc3ccccc3c1=O)O2)C(=O)NS(=O)(=O)C1CC1 [Example 1, (3aR,7S,10S,12R,23E,25aS)-7-cyclopentyl-N-((1R,2S)-1-{[(cyclopropylsulfonyl)amino]carbonyl}-2-vinylcyclopropyl)-5,8,19-trioxo-1,2,3,3a,5,6,7,8,11,12,21,22,25,25a-tetradecahydro-10H,19H-9,12-methanocyclopenta[18,19][1,10,3,6,12]dioxatiazacyclononadecino[12,11-b]isoquinoline-10-carboxamide]	< 0.1
C=C[C@@H]1C[C@]1(NC(=O)[C@@H]1C[C@@H]2CN1C(=O)[C@H](C1CCCC1)NC(=O)O[C@@H]1CCC[C@H]1CCCCCn1c(cc3ccccc3c1=O)O2)C(=O)NS(=O)(=O)C1CC1 [Example 13, (3aR,7S,10S,12R,25aR)-7-cyclopentyl-N-((1R,2S)-1-{[(cyclopropylsulfonyl)amino]carbonyl}-2-vinylcyclopropyl)-5,8,19-trioxo-1,2,3,3a,5,6,7,8,11,12,21,22,23,24,25,25a-hexadecahydro-10H,19H-9,12-methanocyclopenta[18,19][1,10,3,6,12]dioxatriazacyclotionadecino[12,11-b]isoquinoline-10-carboxamide]	< 0.1
CC[C@@H]1C[C@]1(NC(=O)[C@@H]1C[C@@H]2CN1C(=O)[C@H](C1CCCC1)NC(=O)O[C@@H]1CCC[C@H]1CCCCCn1c(cc3ccc(F)cc3c1=O)O2)C(=O)NS(=O)(=O)C1CC1 [Example 16, (3aR,7S,10S,12R,25aR)-7-cyclopentyl-N-((1R,2R)-1-{[(cyclopropylsulfonyl)amino]carbonyl}-2-ethylcyclopropyl)-17-flouoro-5,8,19-trioxo-1,2,3,3a,5,6,7,8,11,12,21,22,23,24,25,25a-hexadecahydro-10H,19H-9,12-methanocyclopenta[18,19][1,10,3,6,12]dioxatriazacyclononadecino[12,11-b]isoquinoline-10-carboxamide]	0.1 to 0.5
C=C[C@@H]1C[C@]1(NC(=O)[C@@H]1C[C@@H]2CN1C(=O)[C@H](C1CCCC1)NC(=O)O[C@@H]1CCC[C@H]1CCCCn1c(cc3ccccc3c1=O)O2)C(=O)NS(=O)(=O)C1CC1 [Example 19, (3aR,7S,10S,12R,24aR)-7-cyclopentyl-N-((1R,2S)-1-{[(cycloproylsulfonyl)amino]carbonyl}-2-vinylcyclopropyl)-5,8,19-trioxo-2,3,3a,5,6,7,8,11,12,21,22,23,24,24a-tetradecahydro-1H,10H,19H-9,12-methanocyclopenta[17,18][1,10,3,6,12]dioxatriazacyclooctadecino[12,11-b]isoquinoline-10-carboxamide]	0.1 to 0.5
CC[C@@H]1C[C@]1(NC(=O)[C@@H]1C[C@@H]2CN1C(=O)[C@H](C(C)(C)C)NC(=O)O[C@@H]1CCC[C@H]1CCCCCn1c(cc3cc(Cl)ccc3c1=O)O2)C(=O)NS(=O)(=O)C1CC1 [Example 28, (3aR,7S,10S,12R,25aR)-7-tert-butyl-16-chloro-N-((1R,2R)-1-{[(cyclopropylsulfonyl)amino]carbonyl}-2-ethylcyclopropyl)-5,8,19-trioxo-1,2,3,3a,5,6,7,8,11,12,21,22,23,24,25,25a-hexadecahydro-10H,19H-9,12-methanocyclopenta[18,19][1,10,3,6,12]dioxatriazacyclononadecino[12,11-b]isoquinolin-10-carboxamide]	0.1 to 0.5
C=C[C@@H]1C[C@]1(NC(=O)[C@@H]1C[C@@H]2CN1C(=O)[C@H](C1CCCC1)NC(=O)O[C@@H]1CCC[C@H]1CC/C=C/Cn1c(nc3cc(Br)ccc3c1=O)O2)C(=O)NS(=O)(=O)C1CC1 [Example 43, (3aR,7S,10S,12R,22E,25aS)-16-bromo-7-cyclopentyl-N-((1R,2S)-1-{[(cyclopropylsulfonyl)amino]carbonyl}-2-vinylcyclopropyl)-5,8,19-trioxo-1,2,3,3a,5,6,7,8,11,12,21,24,25,25a-tetradecahydro-10H,19H-9,12-methanocyclopenta[18,19][1,10,3,6,12]dioxatriazatriazacyclononadecino[11,12-b]quinazoline-10-carboxamide]	< 0.1
CC[C@@H]1C[C@]1(NC(=O)[C@@H]1C[C@@H]2CN1C(=O)[C@H](C1CCCC1)NC(=O)O[C@@H]1CCC[C@H]1CC/C=C/Cn1c(nc3cc(OC)ccc3c1=O)O2)C(=O)NS(=O)(=O)C1CC1 [Example 50, (3aR,7S,10S,12R,22E,25aS)-7-cylcopentyl-N-((1R,2R)-1-{[(cyclopropylsulfonyl)amino]carbonyl}-2-ethylcyclopropyl)-16-methoxy-5,8,19-trioxo-1,2,3,3a,5,6,7,8,11,12,21,24,25,25a-tetradecahydro-10H,19H-9,12-methanocyclopenta[18,19][1,10,3,6,12]dioxatriazacyclononadecino[11,12-b]quinazoline-10-carboxamide]	0.1 to 0.5
C=C[C@@H]1C[C@]1(NC(=O)[C@@H]1C[C@@H]2CN1C(=O)[C@H](C1CCCC1)NC(=O)O[C@@H]1CCC[C@H]1CC/C=C/Cn1c(nc3c(OC)cccc3c1=O)O2)C(=O)NS(=O)(=O)C1CC1 [Example 51]	< 0.1
C=C[C@@H]1C[C@]1(NC(=O)[C@@H]1C[C@@H]2CN1C(=O)[C@H](C1CCCC1)NC(=O)O[C@@H]1CCC[C@H]1CC/C=C/Cc1c(nc3cc(OC)ccn3c1=O)O2)C(=O)NS(=O)(=O)C1CC1 [Example 57, (3aR,7S,10S,12R,22E,25aS)-7-cyclopentyl-N-((1R,2S)-1-{[(cyclopropylsulfonyl)amino]carbonyl}-2-vinylcylcopropyl)-16-methoxy-5,8,20-trioxo-1,2,3,3a,5,6,7,8,11,12,21,24,25,25a-tetradecahydro-10H,20H-9,12-methanocyclopenta[r]pyrido[1′,2′:1,2]pyrimido[4,5-k][1,10,3,6]dioxadiazacyclononadecine-10-carboxamide]	< 0.1
C=C[C@@H]1C[C@]1(NC(=O)[C@@H]1C[C@@H]2CN1C(=O)[C@H](C1CCCC1)NC(=O)O[C@@H]1CCC[C@H]1CC/C=C/Cn1c(nc3cc(C)ccc3c1=O)O2)C(=O)NS(=O)(=O)C1CC1 [Example 61]	< 0.1
C=C[C@@H]1C[C@]1(NC(=O)[C@@H]1C[C@@H]2CN1C(=O)[C@H](C1CCCC1)NC(=O)O[C@@H]1CCC[C@H]1CC/C=C/Cn1c(nc3cc(C#N)ccc3c1=O)O2)C(=O)NS(=O)(=O)C1CC1 [Example 63, (3aR,7S,10S,12R,22E,25a8)-16-cyano-7-cyclopentyl-N-((1R,2S)-1-{[(cyclopropylsulfonyl)amino]carbonyl}-2-vinylcyclopropyl)-5,8,19-trioxo-1,2,3,3a,5,6,7,8,11,12,21,24,25,25a-tetradecahydro-10H,19H-9,12-methanocyclopenta[18,19][1,10,3,6,12]dioxatriazacyclononadecino[11,12-b]quinazoline-10-carboxamide]	< 0.1
C=C[C@@H]1C[C@]1(NC(=O)[C@@H]1C[C@@H]2CN1C(=O)[C@H](C1CCCC1)NC(=O)O[C@@H]1CCC[C@H]1CCCCCn1c(nc3cc(C#N)ccc3c1=O)O2)C(=O)NS(=O)(=O)C1CC1 [Example 78, (3aR,7S,10S,12R,25aR)-16-cyano-7-cyclopentyl-N-((1R,2S)-1-{[(cycyclopropylsulfonyl)amino]carbonyl}-2-vinylcyclopropyl)-5,8,19-trioxo-1,2,3,3a,5,6,7,8,11,12,21,22,23,24,25,25a-hexadecahydro-10H,19H-9,12-methanocyclopenta[18,19][1,10,3,6,12]dioxatriazacyclononadecino[11,12-b]quinazoline-10-carboxamide]	0.1 to 0.5
C=C[C@@H]1C[C@]1(NC(=O)[C@@H]1C[C@@H]2CN1C(=O)[C@H](C1CCCC1)NC(=O)O[C@@H]1CCC[C@H]1CCC=CCn1c(cccc1=O)O2)C(=O)NS(=O)(=O)C1CC1 [Example 81, (1R,10E, and 10Z,14S,18R,22S,25S)-22-Cyclopentyl-N-((1R,2S)-1-{[(cyclopropyl-sulfonyl)amino]carbonyl}-2-vinylcyclopropyl)-7,20,23-trioxo-2,19-dioxa-8,21,24-tri azatetracyclo[22.2.1.0^3,8.0^14,18]heptacosa-3,5,10-triene-25-carboxamide]	0.1 to 0.5
